Results taken from patent publication US8551914B2, “Pesticidal compositions” (Dow AgroSciences, LLC., priority 2011, dated 2013).
Counter-ions that a name gives are not always drawn.

Tests used:
Format in all cases: in vivo
[1] = tested on: CEW (Helicoverpa zea); test: Bioassay on corn earworm (CEW), 128-well diet tray assay; conditions: 50 μg/cm2 on artificial diet, second instar larvae, five to seven days, 25° C.; for mortality at 50 µg/cm2: Helicoverpa zea, 168 h
Procedure: (§1) Certain molecules disclosed in this document were tested against BAW and CEW using procedures described in the following examples. In the reporting of the results, the “BAW & CEW Rating Table” was used (See Table Section).
Bioassays on CEW were conducted using a 128-well diet tray assay. one to five second instar CEW larvae were placed in each well (3 mL) of the diet tray that had been previously filled with 1 mL of artificial diet to which 50 μg/cm^2 of the test compound (dissolved in 50 μL of 90:10 acetone-water mixture) had been applied (to each of eight wells) and then allowed to dry. Trays were covered with a clear self-adhesive cover, and held at 25° C., 14:10 light-dark for five to seven days. Percent mortality was recorded for the larvae in each well; activity in the eight wells was then averaged. The results are indicated in the table entitled “Table 1” (See Table Section).

[2] = tested on: GPA (Myzus persicae); test: Bioassay on green peach aphid (GPA), foliar spray on cabbage seedlings; conditions: 200 ppm spray on cabbage seedlings, three days, Abbott corrected % control; for mortality at 200 ppm: Myzus persicae, foliar, 72 h
Procedure: Certain molecules disclosed in this document were tested against GPA using procedures described in the following example. In the reporting of the results, the “GPA Rating Table” was used (See Table Section).
Cabbage seedlings grown in 3-inch pots, with 2-3 small (3-5 cm) true leaves, were used as test substrate. The seedlings were infested with 20-50 GPA (wingless adult and nymph stages) one day prior to chemical application. Four pots with individual seedlings were used for each treatment. Test compounds (2 mg) were dissolved in 2 mL of acetone/methanol (1:1) solvent, forming stock solutions of 1000 ppm test compound. The stock solutions were diluted 5× with 0.025% Tween 20 in H2O to obtain the solution at 200 ppm test compound. A hand-held aspirator-type sprayer was used for spraying a solution to both sides of […] leaves until runoff. Reference plants (solvent check) were sprayed with the diluent only containing 20% by volume of acetone/methanol (1:1) solvent. Treated plants were held in a holding room for three days at approximately 25° C. and ambient relative humidity (RH) prior to grading. Evaluation was conducted by counting the number of live aphids per plant under a microscope. Percent Control was measured by using Abbott's correction formula (W. S. Abbott, “A Method of Computing the Effectiveness of an Insecticide” J. Econ. Entomol. 18 (1925), pp. 265-26′7) as follows. Corrected % Control=100*(X−Y)/X • where • X=No. of live aphids on solvent check plants and • Y=No. of live aphids on treated plants

[3] = tested on: BAW (Spodoptera exigua); test: Bioassay on beet armyworm (BAW), 128-well diet tray assay; conditions: 50 μg/cm2 on artificial diet, second instar larvae, five to seven days, 25° C.; for mortality at 50 µg/cm2: Spodoptera exigua, 168 h
Procedure: as §1
Bioassays on BAW were conducted using a 128-well diet tray assay. one to five second instar BAW larvae were placed in each well (3 mL) of the diet tray that had been previously filled with 1 mL of artificial diet to which 50 μg/cm^2 of the test compound (dissolved in 50 μL of 90:10 acetone-water mixture) had been applied (to each of eight wells) and then allowed to dry. Trays were covered with a clear self-adhesive cover, and held at 25° C., 14:10 light-dark for five to seven days. Percent mortality was recorded for the larvae in each well; activity in the eight wells was then averaged. The results are indicated in the table entitled “Table 1” (See Table Section).

Row | Compound | mortality at 50 µg/cm2 [1] [%] | mortality at 200 ppm [2] [%] | mortality at 50 µg/cm2 [3] [%] | % Mortality CEW 50 μg/cm2 [1] | % Mortality BAW 50 μg/cm2 [3] | % Mortality GPA 200 ppm [2]
1 | CO[C@@H]1[C@@H](OC)[C@H](C)O[C@@H](ON(C)Cc2ccc(-c3ncn(-c4ccc(OC(F)(F)F)cc4)n3)cc2)[C@@H]1OC [Compound 7, N-Methyl-N-{4-[1-(4-trifluoromethoxyphenyl)-1H-[1,2,4]triazol-3-yl]-benzyl}-O-((2S,3R,4R,5S6S)-3,4,5-trimethoxy-6-methyl-tetrahydro-pyran-2-yl)-hydroxylamine] | 50 to 100 | 0 | 50 to 100 | – | – | –
2 | CO[C@@H]1[C@@H](OC)[C@H](C)O[C@@H](ON(Cc2ccc(-c3ncn(-c4ccc(OC(F)(F)F)cc4)n3)cc2)C(C)=O)[C@@H]1OC [Compound 6, N-{4-[1-(4-trifluoromethoxyphenyl)-1H-[1,2,4]triazol-3-yl]-benzyl}-N-((2S,3R,4R,5S,6S)-3,4,5-trimethoxy-6-methyl-tetrahydropyran-2-yloxy)-acetamide] | 50 to 100 | 0 to 80 | 50 to 100 | – | – | –
3 | CO[C@@H]1[C@@H](OC)[C@H](C)O[C@@H](ONCc2ccc(-c3ncn(-c4ccc(OC(F)(F)F)cc4)n3)cc2)[C@@H]1OC [Compound 3, N-{4-[1-(4-trifluoromethoxyphenyl)-1H-[1,2,4]triazol-3-yl]-benzyl}-O-((2S,3R,4R,5S,6S)-3,4,5-trimethoxy-6-methyl-tetrahydro-pyran-2-yl)-hydroxylamine] | – | 0 to 80 | – | A (50-100) | A (50-100) | –
4 | CO[C@@H]1[C@@H](OC)[C@H](C)O[C@@H](ONCc2ccc(-c3ncn(-c4ccc(OC(F)(F)F)cc4)n3)cc2)[C@@H]1OC.Cl [Compound 4, N-{4-[1-(4-trifluoromethoxyphenyl)-1H-[1,2,4]triazol-3-yl]-benzyl}-O-((2S,3R,4R,5S,6S)-3,4,5-trimethoxy-6-methyl-tetrahydropyran-2-yl)-hydroxylamine hydrochloride] | – | – | 50 to 100 | B (More than 0-Less than 50) | – | –
5 | CCO[C@@H]1[C@@H](OC)[C@H](C)O[C@@H](ONCc2ccc(-c3ncn(-c4ccc(OC(F)(F)C(F)(F)F)cc4)n3)cc2)[C@@H]1OC [Compound 5, O-((2S,3R,4R,5S,6S)-4-Ethoxy-3,5-dimethoxy-6-methyl-tetrahydropyran-2-yl)-N-{4-[1-(4-pentafluoroethyloxy-phenyl)-1H-[1,2,4]triazol-3-yl]-benzyl}-hydroxylamine hydrochloride] | 50 to 100 | 0 | 50 to 100 | – | – | –
6 | CO[C@@H]1[C@@H](OC)[C@H](C)O[C@@H](ON(Cc2ccc(-c3ncn(-c4ccc(OC(F)(F)F)cc4)n3)cc2)C(=O)CCC(=O)O)[C@@H]1OC [Compound 8, N-{4-[1-(4-trifluoromethoxyphenyl)-1H-[1,2,4]triazol-3-yl]-benzyl}-N-((2S,3R,4R,5S,6S)-3,4,5-trimethoxy-6-methyl-tetrahydropyran-2-yloxy)-succinamic acid] | 0 | 0 | 0 | – | – | –
7 | CO[C@@H]1[C@@H](O)[C@H](C)O[C@@H](ONCc2ccc(-c3ncn(-c4ccc(OC(F)(F)C(F)(F)F)cc4)n3)cc2)[C@@H]1OC [Compound 2, (2S,3S,4R,5R,6S)-4,5-Dimethoxy-2-methyl-6-(N-{4-[1-(4-pentafluoroethyloxy-phenyl)-1H-[1,2,4]triazo1-3-yl]-benzyl}aminooxy)-tetrahydroyran-3-ol] | 50 to 100 | 0 to 80 | 50 to 100 | – | – | –
8 | COC(=O)CC(=O)N(Cc1ccc(-c2ncn(-c3ccc(OC(F)(F)F)cc3)n2)cc1)O[C@@H]1O[C@@H](C)[C@H](OC)[C@@H](OC)[C@H]1OC [Compound 9, N-{4-[1-(4-trifluoromethoxyphenyl)-1H-[1,2,4]triazol-3-yl]-benzyl}-N-((2S,3R,4R,5S,6S)-3,4,5-trimethoxy-6-methyl-tetrahydropyran-2-yloxy)-malonamic acid methyl ester] | 50 to 100 | 0 to 80 | 50 to 100 | – | – | –
9 | CCO[C@@H]1[C@@H](OC)[C@H](C)O[C@@H](ONCc2ccc(-c3ncn(-c4ccc(OC(F)(F)C(F)(F)F)cc4)n3)cc2)[C@@H]1OC [Compound 1, O-((2S,3R,4R,5S,6S)-4-ethoxy-3,5-dimethoxy-6-methyl-tetrahydropyran-2-yl)-N-{4-[1-(4-pentafluoroethyloxy-phenyl)-1H-[1,2,4]triazol-3-yl]-benzyl}-hydroxylamine] | – | – | – | A (50-100) | A (50-100) | B (More than 0-Less than 80)
